In EP1000623A1, “Use of epinastine as antitussivum” (Boehringer Ingelheim International GmbH, priority 1998, dated 2000):
Structures can show the parent of a compound that is named as a salt.

Test system: place preference
Assay: Place conditioning (conditioned place preference, shuttle box)
Format: in vivo, Male ICR mice
Conditions: 1 mg/kg, s.c.; mean ± S.E., n=8; time in drug-paired minus saline-paired place, 900-s session
Protocol: Male ICR mice (6 weeks old; Tokyo Laboratory Animals Science Co., Ltd., Tokyo, Japan), weighing about 30 g, were used. They had free access to food and water in an animal room which was maintained at 22 ± 1°C with a 12-hour light-dark cycle. This study was carried out in accordance with the Declaration of Helsinki and/or with the guide for the care and use of laboratory animals as adopted by the committee on the care and use of laboratory animals of Hoshi University, which is accredited by the Ministry of Education, Science, Sports and Culture, Japan.
Place conditioning was conducted as previously using a minor modification of an unbaised procedure [J. Kamei et al., Eur. J. Pharmacol. 318 (1996) 251]. The apparatus used was a shuttle box (15 x 30 x 15 cm: w x 1 x h) which was divided into two compartments of equal size. […] The time spent in each compartment during a 900-s session was then measured in a blinded fashion by an infrared beam sensor (KN-80, Natume, Tokyo, Japan). […]
The potency ration was calculated according to a statistical program (Program 11 of the Pharmacological Calculations System) (8). Conditioning scores represent the time spent in the drug paired place minus the time spent in the saline-paired place, and are expressed as mean ± S.E. The Wilcoxon test was used to determine whether individual doses produced a significant conditioning (P<0.05).

NC1=NCC2c3ccccc3Cc3ccccc3N12 (stereo not shown) [epinastine, epinastine hydrochloride]
mean conditioning score: 20.3 ± 61.8 s
